Experimental data reported in publication PMC2784932 (Biochemistry, 2009).

What was measured:
[1] = system: T4Y; assay: Effect of isolated Phe on self-association by turbidity; details: T4Y c=7mg/ml, 44°C, PBS, 1peptide:60F
[2] = system: FT4Y; assay: as above; details: FT4Y c=3mg/ml, 46°C, data not shown
[3] = system: (Pro-Hyp-Gly)10; assay: DSC of triple-helical peptide in presence of Phe; details: PBS pH 7, peptide c=1mg/ml, molar ratio peptide:Phe = 1:200
[4] = molecular target: T4, type IV collagen model peptide (POG)3QOGLOGLOG(POG)4; assay: dynamic light scattering
[5] = molecular target: T4, type IV collagen model peptide (POG)3QOGLOGLOG(POG)4; assay: critical concentration

Row | Molecule | effect on self-association of T4Y [1] | effect on self-association of FT4Y [2] | effect on thermal stability of (Pro-Hyp-Gly)10 by DSC [3] | stoichiometry N [4] | critical concentration [5] [mg/mL]
1 | N[C@@H](Cc1ccccc1)C(=O)O [Phe, L-phenylalanine] | substantial delay in self-association | substantial delay in self-association | slight destabilization | – | –
2 | T4, type IV collagen model peptide (POG)3QOGLOGLOG(POG)4 | – | – | – | 3 | 5.9
